The values below come from publication PMC11597478, “Kinin B1- and B2-Receptor Subtypes Contract Isolated Bovine Ciliary Muscle: Their Role in Ocular Lens Function and Intraocular Pressure Reduction” (Pharmaceuticals, 2024).

The subject of experiment [1] is bovine ciliary muscle (BCM) strips. Briefly: tissue or blood. The experiment is classed as cell-based. How it is done:
The methods utilized in the current studies were adapted from Lograno and Romano [13] and Ohia et al., with some minor modifications. Fresh bovine eyeballs were obtained from a local abattoir (Fisher Ham and Meat Company, Houston, TX, USA) and transported to the laboratory in ice. Whole eyeballs were placed in warm oxygenated Krebs buffer solution for 30 min to ensure equilibration before dissection of the ciliary muscle. Briefly, the anterior segment was dissected out of whole eyeballs after an incision was made at the limbus. The anterior segment containing the cornea, anterior uvea, and lens was then inverted and the lens dislodged with a probe along with the attached vitreous humor. After removal of the vitreous humor and lens, the whole ciliary muscle (comprising both longitudinal and circular portions) was quickly isolated and dissected from the scleral spur and choroid. Muscle strips of 4–5 mm in length were cut and mounted in 25 mL organ baths containing oxygenated Krebs solution at 37 °C using a silk thread linked to an isometric strain gauge under a constant load of 1g tension. The tissues were then allowed to equilibrate for 30 min. Two ciliary muscle strips were prepared from each eyeball and four to eight strips were used for each series of experiments. The composition of the Krebs solution used (mM) was NaCl, 118; KCl, 4.8; CaCl2, 2.5; KH2PO4, 1.2; NaHCO3, 25; MgSO4, 2.0; dextrose, 10 and flurbiprofen, 0.003 (pH 7.4), all purchased from Sigma-Aldrich, St. Louis, MO (USA). […] A robust response was characterized as a single contraction that consistently yielded a tension in the muscle induced by carbachol of 0.15–0.3 gm. […] Tissue strips were then thoroughly rinsed with fresh buffer solution via a series of buffer additions and drainage activities to remove any residual muscarinic agonist, and the preload was readjusted prior to starting the actual study with kininergic ligands. Concentration–response studies employed 7–11 compound concentrations (0.1 nM to 10 µM) and data from multiple experiments were collected.
The contractile responses obtained were expressed as gram tension developed and as percentages of the maximum response of each of the compounds. GraphPad Prism 4.0 Software (San Diego, CA, USA) was then used to construct the concentration–response curves for the kinins and to derive the half-maximal stimulation potencies (EC50) of each phase of the bi-phasic curves and the values tabulated as previously described.

Experiment [2] deals with guinea pig taenia caeci. To be noted: tissue contraction, ref [17],[18], cited from earlier work. The text has this:
Table 2 Ability of BK and Des-Arg^9-BK to Contract Various Tissues of Different Species or to Mobilize Intracellular Ca^2+ in human Ocular Cells. | column: GPTC

Experiment [3] deals with guinea pig trachea. To be noted: tissue contraction, ref [17],[18], cited from earlier work. From the text:
Table 2 Ability of BK and Des-Arg^9-BK to Contract Various Tissues of Different Species or to Mobilize Intracellular Ca^2+ in human Ocular Cells. | column: GPT

For experiment [4], the system named is human umbilical vein. To be noted: B2-receptor-mediated contraction; ref [1],[2],[3],[18],[20],[23]; read-out: Functional potency, HUV, HP Site; cited from earlier work. From the text:
Table 2 Ability of BK and Des-Arg^9-BK to Contract Various Tissues of Different Species or to Mobilize Intracellular Ca^2+ in human Ocular Cells. | column: HUV

Experiment [5] relates to rat uterus strips. To be noted: B2-receptor-mediated contraction; ref [1],[2],[3],[18],[20],[23]; read-out: Functional potency, RUT, HP Site; cited from earlier work. From the text:
Table 2 Ability of BK and Des-Arg^9-BK to Contract Various Tissues of Different Species or to Mobilize Intracellular Ca^2+ in human Ocular Cells. | column: RUT

In experiment [6] the test system is rat whole bladder. The note with it: B2-receptor-mediated contraction; ref [1],[2],[3],[18],[20],[23]; read-out: Functional potency, RWB, HP Site; cited from earlier work. The text has this:
Table 2 Ability of BK and Des-Arg^9-BK to Contract Various Tissues of Different Species or to Mobilize Intracellular Ca^2+ in human Ocular Cells. | column: RWB

For experiment [7], the system named is human bladder strips. To be noted: second value of cell, undefined kinin receptor, ref [10], read-out: Functional potency, M/H BSTP, HP Site (human); cited from earlier work. From the text: (§1) Table 2 Ability of BK and Des-Arg^9-BK to Contract Various Tissues of Different Species or to Mobilize Intracellular Ca^2+ in human Ocular Cells. | column: M/H BSTP
The test system of experiment [8] is mouse bladder strips. The note with it: first value of cell, undefined kinin receptor, ref [10], read-out: Functional potency, M/H BSTP, HP Site (mouse); cited from earlier work.
Description: as §1

Experiment [9] relates to rat ileum. To be noted: B1-receptor in rat ileum, contraction; ref [25]; read-out: Functional potency, RI, HP Site; cited from earlier work. From the text:
Table 2 Ability of BK and Des-Arg^9-BK to Contract Various Tissues of Different Species or to Mobilize Intracellular Ca^2+ in human Ocular Cells. | column: RI || In the current studies, both BK and Des-Arg^9-BK contracted the BCM in a biphasic fashion, indicating the involvement of both B1 and B2 receptors in the smooth muscle contraction process. Other agonist peptides related to BK also elicited similar profiles of contractility, thereby substantiating the effects of BK and Des-Arg^9-BK in this specific tissue. Furthermore, the role of both kinin receptor subtypes being responsible for contracting BCM in vitro was confirmed by sequentially recording the functional responses of the tissue in the presence of B1- and B2-receptor antagonists in numerous ...

Experiment [10] concerns human ciliary muscle (hCM) cells. The note with it: [Ca2+]i mobilization, first value of cell; single B2-receptor subtype; ref [2],[8]; read-out: Functional potency, hCM Cells, HP Site; cited from earlier work. From the text: (§2) Table 2 Ability of BK and Des-Arg^9-BK to Contract Various Tissues of Different Species or to Mobilize Intracellular Ca^2+ in human Ocular Cells. | column: hCM/hTM Cells

Experiment [11] concerns human trabecular meshwork (hTM) cells. The note with it: [Ca2+]i mobilization, second value of cell; single B2-receptor subtype; ref [2],[8]; read-out: Functional potency, hTM Cells, HP Site; cited from earlier work.
Description: as §2

In experiment [12] the test system is recombinant B1 receptors expressed in host cells. To be noted: ref [1]; read-out: binding affinity Ki, recombinant B1 receptor (mouse); cited from earlier work.
Experiment [13] has the same test system. The note with it: ref [1]; read-out: binding affinity Ki, recombinant B1 receptor (rabbit); cited from earlier work.
Experiment [14] has the same test system. To be noted: ref [1]; read-out: binding affinity Ki, recombinant B1 receptor (human); cited from earlier work.

Where two headings read alike, the source gives them in different places. Peptide text beside a SMILES is read from it.

Regarding `N=C(N)NCCC[C@H](NC(=O)[C@H](Cc1ccccc1)NC(=O)[C@@H]1CCCN1C(=O)[C@H](CO)NC(=O)[C@H](Cc1ccccc1)NC(=O)CNC(=O)[C@@H]1CCCN1C(=O)[C@@H]1CCCN1C(=O)[C@@H](N)CCCNC(=N)N)C(=O)O` [BK, Bradykinin] (H-RPPGFSPFR-OH; N-terminus and C-terminus assumed), the EC50 was 0.9 ± 0.3 nM in experiment [1]; 3 nM in [2] (high potency site, read-out: Functional potency, GPTC, HP Site); 1000 nM in experiment [2] (low potency site, read-out: Functional potency, GPTC, LP Site); 20 nM in experiment [3] (high potency site, read-out: Functional potency, GPT, HP Site); 4000 nM in experiment [3] (low potency site, read-out: Functional potency, GPT, LP Site); 9 nM in experiment [4]. Also, the EC50 in [5] is 3 nM; in [6], 90 nM; in experiment [7], 5100 nM; in [8], 1200 nM; in [9] it was 4890 nM; in experiment [10], 2.4 nM. Besides, the EC50 in [11] is 1 nM. In addition, in experiment [1] (biphasic C-R curve, BCM strips), the “share of the maximal contraction accounted for by the first high affinity/potency phase” value was 40–60%. In [1] (freshly isolated BCM strips, Krebs 37 °C, 1 g load, 7–11 concentrations (0.1 nM–10 µM), mean ± SEM, 3–8 experiments), the “Max. Tension Generated During Contraction” value is on record as 0.07 ± 0.01 gm tension. In addition, the Ki was 200 nM in experiment [12], 5000 nM in experiment [13] and 10000 nM in experiment [14].
